According to patent US11180474B2 (BRISTOL-MYERS SQUIBB COMPANY, priority 2016, dated 2021):
pIC50: −log10 of the molar value.

Key:
[1] = target: T1, human TLR7 (Homo sapiens, UniProt Q9NYK1); test: TLR7 inhibition reporter assay (HEK-Blue cells, SEAP reporter, gardiquimod stimulation); assay type: cell-based; settings: HEK-Blue cells overexpressing human TLR7, gardiquimod 7.5 μM
T1 construct: host or cells: HEK-Blue cells
T1 sequence (Q9NYK1 27-1049): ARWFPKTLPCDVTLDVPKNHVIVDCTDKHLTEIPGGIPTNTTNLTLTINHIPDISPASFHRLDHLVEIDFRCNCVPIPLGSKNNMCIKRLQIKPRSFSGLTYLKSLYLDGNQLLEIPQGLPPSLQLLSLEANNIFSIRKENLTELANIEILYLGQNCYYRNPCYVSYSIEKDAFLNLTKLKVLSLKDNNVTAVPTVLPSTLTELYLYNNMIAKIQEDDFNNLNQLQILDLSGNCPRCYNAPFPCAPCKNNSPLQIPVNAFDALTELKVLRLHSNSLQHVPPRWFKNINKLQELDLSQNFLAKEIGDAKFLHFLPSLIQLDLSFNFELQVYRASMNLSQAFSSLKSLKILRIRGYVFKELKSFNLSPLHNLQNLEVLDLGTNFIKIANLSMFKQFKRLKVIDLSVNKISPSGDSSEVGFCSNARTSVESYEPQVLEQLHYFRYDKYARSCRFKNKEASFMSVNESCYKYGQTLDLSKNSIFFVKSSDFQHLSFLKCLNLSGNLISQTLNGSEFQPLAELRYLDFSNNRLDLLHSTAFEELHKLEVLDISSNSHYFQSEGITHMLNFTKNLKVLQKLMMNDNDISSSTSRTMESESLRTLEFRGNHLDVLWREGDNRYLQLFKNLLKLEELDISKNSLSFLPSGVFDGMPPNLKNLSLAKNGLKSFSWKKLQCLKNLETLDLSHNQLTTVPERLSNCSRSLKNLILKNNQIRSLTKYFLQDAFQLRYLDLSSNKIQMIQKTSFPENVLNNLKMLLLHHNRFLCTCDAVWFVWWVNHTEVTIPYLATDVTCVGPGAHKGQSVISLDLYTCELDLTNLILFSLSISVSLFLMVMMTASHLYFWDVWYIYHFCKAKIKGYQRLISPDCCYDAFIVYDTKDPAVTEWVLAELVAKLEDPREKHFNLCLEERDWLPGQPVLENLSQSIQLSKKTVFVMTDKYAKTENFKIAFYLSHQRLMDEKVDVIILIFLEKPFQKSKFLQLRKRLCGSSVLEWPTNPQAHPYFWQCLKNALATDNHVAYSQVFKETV
Experimental: (§1) TLR7/8/9 Inhibition Reporter Assays
Briefly, cells are seeded into Greiner 384 well plates (15000 cells per well for TLR7, 20,000 for TLR8 and 25,000 for TLR9) and then treated with test compounds in DMSO to yield a final dose response concentration range of 0.05 nM-50 μM. […] After a 22 hour incubation at 37° C., 5% CO2, SEAP levels are determined with the addition of HEK-Blue™ Detection reagent (Invivogen), a cell culture medium that allows for detection of SEAP, according to manufacturer's specifications. The percent inhibition is determined as the % reduction in the HEK-Blue signal present in wells treated with agonist plus DMSO alone compared to wells treated with a known inhibitor.

[2] = target: T2, human TLR9 (Homo sapiens, UniProt Q9NR96); test: TLR9 inhibition reporter assay (HEK-Blue cells, SEAP reporter, ODN2006 stimulation); assay type: cell-based; settings: HEK-Blue cells overexpressing human TLR9, ODN2006 5 nM
T2 construct: host or cells: HEK-Blue cells
T2 sequence (Q9NR96 26-1032): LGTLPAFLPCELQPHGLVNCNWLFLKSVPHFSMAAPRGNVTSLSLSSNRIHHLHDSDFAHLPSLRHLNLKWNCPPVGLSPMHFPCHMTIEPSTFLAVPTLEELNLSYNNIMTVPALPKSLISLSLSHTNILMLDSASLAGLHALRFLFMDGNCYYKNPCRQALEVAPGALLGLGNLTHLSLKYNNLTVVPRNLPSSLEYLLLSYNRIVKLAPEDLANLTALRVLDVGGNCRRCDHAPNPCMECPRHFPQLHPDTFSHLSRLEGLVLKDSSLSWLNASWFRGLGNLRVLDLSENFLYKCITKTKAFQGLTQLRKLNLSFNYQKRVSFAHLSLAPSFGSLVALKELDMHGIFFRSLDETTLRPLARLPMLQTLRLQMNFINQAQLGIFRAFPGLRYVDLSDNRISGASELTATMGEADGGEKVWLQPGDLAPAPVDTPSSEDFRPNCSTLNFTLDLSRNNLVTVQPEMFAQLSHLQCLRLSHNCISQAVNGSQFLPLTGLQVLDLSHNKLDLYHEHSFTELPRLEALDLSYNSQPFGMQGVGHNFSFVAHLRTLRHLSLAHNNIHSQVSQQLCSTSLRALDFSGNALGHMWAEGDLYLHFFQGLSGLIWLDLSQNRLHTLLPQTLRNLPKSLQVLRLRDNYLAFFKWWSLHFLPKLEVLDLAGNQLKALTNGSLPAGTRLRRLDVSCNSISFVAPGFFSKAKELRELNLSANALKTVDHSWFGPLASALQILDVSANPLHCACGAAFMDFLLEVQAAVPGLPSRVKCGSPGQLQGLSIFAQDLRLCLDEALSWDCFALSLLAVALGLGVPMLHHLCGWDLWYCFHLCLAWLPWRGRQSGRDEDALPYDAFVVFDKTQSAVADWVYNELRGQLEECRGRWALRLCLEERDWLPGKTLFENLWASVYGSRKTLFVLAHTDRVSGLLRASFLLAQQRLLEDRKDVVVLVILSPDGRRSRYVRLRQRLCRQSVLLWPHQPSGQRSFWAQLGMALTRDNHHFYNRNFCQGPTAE
Experimental: as §1
HEK-Blue™-cells (Invivogen) overexpressing human TLR7, TLR8 or TLR9 receptors were used for screening inhibitors of these receptors using an inducible SEAP (secreted embryonic alkaline phosphatase) reporter gene under the control of the IFN-β minimal promoter fused to five NF-κB and AP-1-binding sites. Briefly, cells are seeded into Greiner 384 well plates (15000 cells per well for TLR7, 20,000 for TLR8 and 25,000 for TLR9) and then treated with test compounds in DMSO to yield a final dose response concentration range of 0.05 nM-50 μM. After a 30 minute compound pre-treatment at room temperature, the cells are then stimulated with a TLR7 ligand (gardiquimod at a final concentration of 7.5 μM), TLR8 ligand (R848 at a final concentration of 15.9 μM) or TLR9 ligand (ODN2006 at a final concentration of 5 nM) to activate NF-κB and AP-1 which induce the production of SEAP. After a 22 hour incubation at 37° C., 5% CO2, SEAP levels are determined with the addition of HEK-Blue™ Detection reagent (Invivogen), a cell culture medium that allows for detection of SEAP, according to manufacturer's specifications. The percent inhibition is determined as the % reduction in the HEK-Blue signal present in wells treated with agonist plus DMSO alone compared to wells treated with a known inhibitor.

Row | SMILES | pIC50 [1] | pIC50 [2]
1 | CCCC[C@@H](CO)NCC(=O)N1CCC(c2ccc3[nH]c(-c4ccc(OC)c(OC)c4)c(CC)c3c2)CC1 [Example 174, (S)-1-(4-(2-(3,4-dimethoxyphenyl)-3-ethyl-1H-indol-5-yl)piperidin-1-yl)-2-((1-hydroxyhexan-2-yl)amino)ethan-1-one] | 5.93 | 5.59
2 | COc1ccc(-c2[nH]c3ccc(C4CCN(Cc5cccc(C(F)(F)F)c5)CC4)cc3c2C(C)C)cc1OC [Example 269, 2-(3,4-dimethoxyphenyl)-3-isopropyl-5-(1-(3-(trifluoromethyl)benzyl)piperidin-4-yl)-1H-indole] | 5.57 | 4.73
3 | CCc1c(-c2ccc(OC)c(OC)c2)[nH]c2ccc(C3CCN(C(=O)CNC4(CO)CCCC4)CC3)cc12 [Example 160, 1-(4-(2-(3,4-dimethoxyphenyl)-3-ethyl-1H-indol-5-yl)piperidin-1-yl)-2-((1-(hydroxymethyl)cyclopentyl)amino)ethan-1-one] | 6.93 | 5.72
4 | CCC(CC)CN1CCC(N2CCC(c3ccc4[nH]c(-c5ccc(OC)c(OC)c5)c(C)c4c3)CC2)CC1 [Example 54, 2-(3,4-dimethoxyphenyl)-5-(1′-(2-ethylbutyl)-[1,4′-bipiperidin]-4-yl)-3-methyl-1H-indole] | 6.23 | 6.62
5 | CCNCC(=O)N1CCC(c2ccc3[nH]c(-c4ccc(OC)c(OC)c4)c(C)c3c2)CC1 [Example 113, 1-(4-(2-(3,4-dimethoxyphenyl)-3-methyl-1H-indol-5-yl)piperidin-1-yl)-2-(ethylamino)ethan-1-one] | 6.43 | 6.05
6 | CCC(C)CN1CCC(N2CCC(c3ccc4[nH]c(-c5ccc(OC)c(OC)c5)c(C)c4c3)CC2)CC1 (stereo not drawn) [Example 51, 2-(3,4-dimethoxyphenyl)-3-methyl-5-(1′-(2-methylbutyl)-[1,4′-bipiperidin]-4-yl)-1H-indole] | 6.62 | 7.05
7 | COc1ccc(-c2[nH]c3ccc(C4CCN(C5CCCN(CC(C)C)C5)CC4)cc3c2C)cc1OC (stereo not drawn) [Example 417, 2-(3,4-dimethoxyphenyl)-5-(1′-isobutyl-[1,3′-bipiperidin]-4-yl)-3-methyl-1H-indole] | 5.93 | 6.25
8 | CCc1c(-c2ccc(OC)c(OC)c2)[nH]c2ccc(C3CCN(C(=O)CNC45CC6CC(CC(O)(C6)C4)C5)CC3)cc12 [Example 163, 1-(4-(2-(3,4-dimethoxyphenyl)-3-ethyl-1H-indol-5-yl)piperidin-1-yl)-2-(((1r,3s,5R,7S)-3-hydroxyadamantan-1-yl)amino) ethan-1-one] | 6.55 | 5.66

The remaining lines, values ahead:

Row | pIC50 [1] | pIC50 [2] | SMILES
9 | 6.23 | 5.97 | COc1ccc(-c2[nH]c3ccc(C4CCN(Cc5cccnc5)CC4)cc3c2C)cc1OC [Example 47, 2-(3,4-dimethoxyphenyl)-3-methyl-5-(1-(pyridin-3-ylmethyl)piperidin-4-yl)-1H-indole]
10 | 6.16 | 6.92 | COc1ccc(-c2[nH]c3ccc(C4CCN(Cc5ccc(N6CCN(C)CC6)cc5)CC4)cc3c2C)cc1OC [Example 42, 2-(3,4-dimethoxyphenyl)-3-methyl-5-(1-(4-(4-methylpiperazin-1-yl)benzyl)piperidin-4-yl)-1H-indole]
11 | 5.79 | 6.10 | COc1ccc(-c2[nH]c3ccc(C4CCN(Cc5cccn5C)CC4)cc3c2C)cc1OC [Example 29, 2-(3,4-dimethoxyphenyl)-3-methyl-5-(1-((1-methyl-1H-pyrrol-2-yl)methyl)piperidin-4-yl)-1H-indole]
12 | 6.76 | 6.27 | COc1ccc(-c2[nH]c3ccc(C4CCN(CCN)CC4)cc3c2C)cc1OC [Example 100, 2-(4-(2-(3,4-dimethoxyphenyl)-3-methyl-1H-indol-5-yl)piperidin-1-yl)ethan-1-amine]
13 | 6.74 | 5.24 | COc1ccc(-c2[nH]c3ccc(C4CCN(Cc5nccs5)CC4)cc3c2C(C)C)cc1OC [Example 261, 2-((4-(2-(3,4-dimethoxyphenyl)-3-isopropyl-1H-indol-5-yl)piperidin-1-yl)methyl)thiazole]
14 | 5.42 | 6.72 | COc1ccc(-c2[nH]c3ccc(C4CCN(Cc5cnc(C)[nH]5)CC4)cc3c2C)cc1OC [Example 4, 2-(3,4-dimethoxyphenyl)-3-methyl-5-(1-((2-methyl-1H-imidazol-5-yl)methyl)piperidin-4-yl)-1H-indole]
15 | 5.63 | 5.42 | COc1ccc(-c2[nH]c3ccc(C4CCN(Cc5csnn5)CC4)cc3c2C)cc1OC [Example 41, 4-((4-(2-(3,4-dimethoxyphenyl)-3-methyl-1H-indol-5-yl)piperidin-1-yl)methyl)-1,2,3-thiadiazole]
16 | 5.67 | 5.97 | COc1ccc(-c2[nH]c3ccc(C4CCN(CCN(C)C)CC4)cc3c2C)cc1OC [Example 415, 2-(4-(2-(3,4-dimethoxyphenyl)-3-methyl-1H-indol-5-yl)piperidin-1-yl)-N,N-dimethylethan-1-amine]
17 | ≤ 4.30 | 4.77 | COc1ccc(-c2[nH]c3ccc(C4CCN(CCN(C)C5COC5)CC4)cc3c2C)cc1OC [Example 109, N-(2-(4-(2-(3,4-dimethoxyphenyl)-3-methyl-1H-indol-5-yl)piperidin-1-yl)ethyl)-N-methyloxetan-3-amine]
18 | 6.44 | 5.29 | COc1ccc(-c2[nH]c3ccc(C4CCN(Cc5cccc(C#N)c5)CC4)cc3c2C(C)C)cc1OC [Example 264, 3-((4-(2-(3,4-dimethoxyphenyl)-3-isopropyl-1H-indol-5-yl)piperidin-1-yl)methyl)benzonitrile]
